Laboratory results reported in paper PMC2594009 (Structure (London, England : 1993), 2008).
Values joined by “and” are separate entries in the source; they are usually repeats but may differ in a detail not shown here. Equal entries are not always repeated. “Also recorded” adds a separate entry of the source.

Legend:
L26F AM2 = type: cell-based, influenza A virus; details: pH 5.5
S31N AM2 = type: cell-based, influenza A virus; details: pH 5.5

In the case of `NC12CC3CC(CC(C3)C1)C2` [amantadine], the “inhibition of the inward current” value (L26F AM2) is reported as 47% and 46.8 ± 0.7%, the “reversibility of inhibition after removal of the drug” value (L26F AM2) is reported as “reversibly inhibited; also recorded: readily reversible” and the “inhibition of the inward current” value (S31N AM2) is reported as 30% and 30.7 ± 1.8%. For the same compound, the “reversibility of inhibition after removal of the drug” value (S31N AM2) was “immediately reversed; also recorded: highly reversible”.
